Where two headings read alike, the source gives them in different places.
Tests used:
[1] = tested on: morning glory (variety: murasaki); settings: from Japanese Patent Publication (A) No. 11-29410; cited from earlier work
[2] = Evaluation of stability: decomposition over time of the diluted aqueous solution, analyzed by HPLC; assay type: physicochemical; settings: 16 mM ethanol solution diluted by water 30-fold, extended standing, HPLC (FIG. 3)
Protocol: The stability of the specific α-ketol fatty acid derivative (1A) was evaluated as follows. A 16 mM ethanol solution of the derivative (1A) was diluted by water 30-fold. This diluted solution was allowed to stand for an extended period at each of the temperatures of 4° C., 25° C. and 50° C. The extent of decomposition over time was analyzed by HPLC (column: CAPCELL PAK C-18 UG120, 4.6×250 mm, solvent: 50% acetonitrile+0.1% trifluoroacetic acid, flow rate: 1 ml/min, wavelength: 210 nm). For comparison, a solution prepared by similarly diluting the specific α-ketol fatty acid derivative (2A) was allowed to stand for an extended period at each of 25° C. and 50° C. The extent of decomposition was similarly investigated.

[3] = tested on: morning glory (variety: murasaki); assay: Activity in increasing flower budding of morning glory (spray, dark treatment, flower buds counted on the 14th day); assay type: in vivo
Protocol: Seeds of morning glory (variety: murasaki) (9 g) were subjected to concentrated sulfuric acid treatment for 20 minutes, and then allowed to stand under water flow overnight.
Subsequently, the seeds were placed on wet sea sand such that the emerging sites of the roots were directed upward for 24 hours, to thereby produce roots. The seeds having roots were planted in sea sand at a position 1 cm below the surface of the sand, and then cultured under continuous light irradiation (for about five days).
The entire plant bodies of the morning glory having leaves produced through this culture were transferred into a culture solution KNO3(250 mg), NH4NO3 (250 mg), KH2PO4 (250 mg), MgSO4.7H2O (250 mg), MnSO4.4H2O (1 mg), Fe-citrate n-hydrate (6 mg), H3BO3 (2 mg), CuSO4.5H2O (0.1 mg), ZeSO4.7H2O (0.2 mg), Na2MoO4.2H2O (0.2 mg), Ca(H2PO4)2.2H2O (250 mg) in distilled water (1,000 mL)].
Water or a 0.01, 0.1, 1 or 100 μM specific α-ketol fatty acid (1A) aqueous solution was sprayed to the cultured system in an amount of 0.1 mL/plant, then the plants were treated by darkness (for 13.5 hours).
Thereafter, the morning glory was grown under continuous light irradiation at 25° C. for 14 days, and on the 14th day the number of the flower buds was measured.
The results of eight specimens of morning glory were averaged.

| Compound | optimum concentration for flower bud formation [1] [µM] | stability at 4° C. compared with 25° C. and 50° C. ([2]; 4° C.) | stability compared with (2A) ([2]; 25° C.) | stability compared with (2A) ([2]; 50° C.) | optimum concentration relative to the optimum concentration of (2A) ([3]; 1 μM versus 100 μM) | number of flower buds formed, increase ([3]; 0.01-100 μM aqueous solution sprayed 0.1 mL/plant, darkness 13.5 hours, counted on 14th day, average of eight specimens, water 1.25 buds/plant (FIG. 2)) [%] | optimum concentration for flower bud formation ([3]; morning glory, sprayed aqueous solution, FIG. 2) [µM] |
| --- | --- | --- | --- | --- | --- | --- | --- |
| CC/C=C\C/C=C\CC(=O)C(O)CCCCCCCC(=O)O (stereo not shown) [compound (2A), 9-hydroxy-10-oxo-12(Z),15(Z)-octadecadienoic acid] | 100 |  |  |  |  |  |  |
| CCC(O)C(O)C/C=C\CC(=O)C(O)CCCCCCCC(=O)O (stereo not shown) [compound (1A), 9,15,16-trihydroxy-10-oxo-12(Z)-octadecenoic acid] |  | far superior in stability | superior in stability | superior in stability | 1/100 | ≥ 200 | 1 |

Reference: patent publication US7544821B2, “α-Ketol unsaturated fatty acid derivative and plant growth regulating agent using same” (Shiseido Company, Ltd., priority 2004, dated 2009)
